The term IC50 denotes the midpoint of a concentration-inhibition curve. A high value points to lower potency.

Molecules are shown by their SMILES. Counter-ions that a name gives are not always drawn.

For the test, the target named is T1, IRAK4 (Homo sapiens, UniProt Q9NWZ3).
T1 construct: purchased CARNA Bioscience 09-145
T1 sequence (Q9NWZ3 1-460): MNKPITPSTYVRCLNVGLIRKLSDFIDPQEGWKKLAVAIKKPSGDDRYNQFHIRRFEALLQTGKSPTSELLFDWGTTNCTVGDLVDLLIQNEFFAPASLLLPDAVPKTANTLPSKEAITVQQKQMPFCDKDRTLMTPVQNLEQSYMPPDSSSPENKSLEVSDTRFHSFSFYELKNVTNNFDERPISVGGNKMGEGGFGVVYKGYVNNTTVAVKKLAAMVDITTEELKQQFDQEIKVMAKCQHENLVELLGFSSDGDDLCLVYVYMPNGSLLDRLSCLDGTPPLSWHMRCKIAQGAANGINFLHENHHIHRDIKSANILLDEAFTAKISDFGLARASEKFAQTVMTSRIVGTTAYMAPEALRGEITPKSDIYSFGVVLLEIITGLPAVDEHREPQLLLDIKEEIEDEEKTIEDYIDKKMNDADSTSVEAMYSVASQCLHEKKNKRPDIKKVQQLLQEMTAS
Description: IRAK-4 activity inhibition assay (Caliper). The class given is biochemical. The note with it: 3.5 nM IRAK4, 1.5 μM Peptide 8, 37 μM ATP, 28° C., 40 minutes. As to the method:
A 1× kinase base buffer was prepared from 50 mM HEPES, pH 7.5 and 0.0015% Brij-35. A stop buffer was prepared from 100 mM HEPES, pH 7.5, 0.015% Brij-35, 0.2% Coating Reagent #3, and 50 mM EDTA.
Test compound was diluted to 50× of the final desired highest inhibitor concentration in reaction by 100% DMSO. 100 ul of this compound dilution was transferred to a well in a 96-well plate.
Test compound was serially diluted by transferring 30 μl to 60 μl of 100% DMSO in the next well and so forth for a total of 10 concentrations. 100 μl of 100% DMSO was added to two empty wells for no compound control and no enzyme control in the same 96-well plate.
A new 96-well plate was marked as intermediate plate. 5 μl of compound serial dilution was transferred from source plate to the corresponding wells of the intermediate plate. 45 μl of 1× kinase base buffer (KB buffer) was added to each well of the intermediate plate. The intermediate plate was placed for 10 min on a shaker.
5 μl of each well was transferred from the 96-well intermediate plate to a 384-well plate in duplicates. For example, A1 of the 96-well plate is transferred to A1 and A2 of the 384-well plate. A2 of the 96-well plate is transferred to A3 and A4 of the 384-well plate, and so on.
IRAK4 and DTT in 1× kinase base buffer was added. The 2.5× enzyme mix contained 8.8 nM IRAK4 and 5 mM DTT.
Peptide 8, ATP, MgCl2 and MnCl2 were added in the 1× kinase base buffer. The 2.5× peptide mix contained 3.75 μM peptide 8, 92.5 μM ATP, 12.5 mM MgCl2 and 2.5 mM MnCl2.
Assay plate already contained 5 μl of compound in 10% DMSO. Added 10 μl of 2.5× enzyme solution to each well of the 384-well assay plate, except no enzyme control wells. The final concentration of IRAK4 in reaction was 3.5 nM. Added 10 μl of 1× kinase base buffer to no enzyme control wells in the assay plate. Incubated at room temperature for 10 min.
Added 10 μl of 2.5× peptide solution to each well of the 384-well assay plate. The final concentration of Peptide 8 and ATP was 1.5 μM and 37 μM, respectively. Incubated at 28° C. for 40 minutes. Added 25 μl of stop buffer to stop reaction. Collected data on Caliper.
Copied conversion % data from Caliper program. Converted conversion % values to percent inhibition values. Percent inhibition=(max−conversion %)/(max−min)*100, where “max” means the conversion % of DMSO control and “min” means the conversion % of no enzyme control.
In turn, `CN(C)[C@H]1CC[C@H](Nc2ncnc3[nH]cc(C#N)c23)CC1` [Compound I-1, 4-[[4-(dimethylamino)cyclohexyl]amino]-7H-pyrrolo[2,3-d]pyrimidine-5-carbonitrile] showed an IC50 of 100 to 1000 nM.

Turning to `CN(C)[C@H]1CC[C@H](Nc2nc(Nc3ccccc3)nc3[nH]ccc23)CC1` [Compound I-2, 4-N-[4-(dimethylamino)cyclohexyl]-2-N-phenyl-7H-pyrrolo[2,3-d]pyrimidine-2,4-diamine], the IC50 was in the range of 100 to 1000 nM.

Consider `CN(C)[C@H]1CC[C@H](Nc2ncnc3[nH]cc(F)c23)CC1` [Compound I-3, (trans)-N^1-(5-fluoro-7H-pyrrolo[2,3-d]pyrimidin-4-yl)-N^4,N^4-dimethylcyclohexane-1,4-diamine], for which the IC50 is 100 to 1000 nM.

Compound `CN(C)[C@H]1CC[C@H](Oc2ncnc3[nH]cc(F)c23)CC1` [Compound I-4, (trans)-4-((5-fluoro-7H-pyrrolo[2,3-d]pyrimidin-4-yl)oxy)-N,N-dimethylcyclohexanamine] displayed an IC50 of 1000 to 10000 nM.

Turning to `CN(C)[C@H]1CC[C@H](Oc2ncnc3[nH]cc(C#N)c23)CC1` [Compound I-5, 4-[[4-(dimethylamino)cyclohexyl]oxy]-7H-pyrrolo[2,3-d]pyrimidine-5-carbonitrile], the IC50 lay within 1000 to 10000 nM.

In turn, `Fc1c[nH]c2ncnc(O[C@H]3CC[C@H](N4CCOCC4)CC3)c12` [Compound I-6, 4-((trans)-4-((5-fluoro-7H-pyrrolo[2,3-d]pyrimidin-4-yl)oxy)cyclohexyl)morpholine] displayed an IC50 of 1000 to 10000 nM.

In turn, `N#Cc1c[nH]c2ncnc(O[C@H]3CC[C@H](N4CCOCC4)CC3)c12` [Compound I-7, 4-(trans-(4-morpholinocyclohexyl)oxy)-7H-pyrrolo[2,3-d]pyrimidine-5-carbonitrile] showed an IC50 of 1000 to 10000 nM.

The compound `CN(C)[C@H]1CC[C@H](Nc2nc(N)nc3[nH]ccc23)CC1` [Compound I-8, 4-N-[4-(dimethylamino)cyclohexyl]-7H-pyrrolo[2,3-d]pyrimidine-2,4-diamine] yielded an IC50 not below 10000 nM.

`CN(C)[C@H]1CC[C@H](Nc2ncnc3oc4c(c23)CCC4)CC1` [Compound I-10, N,N-dimethyl-4-N-[7-oxa-9,11-diazatricyclo[6.4.0.0[2,6]]dodeca-1(12),2(6),8,10-tetraen-12-yl]-trans-cyclohexane-1,4-diamine] came in with an IC50 of 1000 to 10000 nM.

Regarding `N[C@H]1CC[C@H](Nc2ncnc3oc4c(c23)CCC4)CC1` [Compound I-11, N^1-(6,7-dihydro-5H-cyclopenta[4,5]furo[2,3-d]pyrimidin-4-yl)-trans-cyclohexane-1,4-diamine], the IC50 is not below 10000 nM.

`CN(C)[C@H]1CC[C@H](Nc2ncnc3occc23)CC1` [Compound I-12, N^1-(furo[2,3-d]pyrimidin-4-yl)-trans-N^4,N^4-dimethylcyclohexane-1,4-diamine formate] came in with an IC50 not below 10000 nM.

Regarding `c1nc(O[C@H]2CC[C@H](N3CCOCC3)CC2)c2ccoc2n1` [Compound I-13, 4-(((trans)-4-morpholinocyclohexyl)oxy)furo[2,3-d]pyrimidine], the IC50 was not below 10000 nM.

For `CN(C)[C@H]1CC[C@H](Oc2ncnc3occc23)CC1` [Compound I-14, trans-4-(furo[2,3-d]pyrimidin-4-yloxy)-N,N-dimethylcyclohexanamine formate], the IC50 was not below 10000 nM.
